Reference: PMC9000318, “Identification and Validation of a New Peptide Targeting Pancreatic Beta Cells” (Molecules, 2022)
Ends that are not written are not given here. * marks the point of attachment. FITC = O=C1OC2(c3ccc(O)cc3Oc3cc(O)ccc32)c2ccc(NC(=S)*)cc21

Key:
MIN6 cells [1] = assay: FITC-labeled peptide-based immunofluorescence assay (ICC) on MIN6 cells; design: species or system mice; settings: FITC-labeled peptide 1 μM, 2 h, room temperature; fluorescence microscope; KPC cells as cell control
Procedure: (§1) Purified FITC-labeled candidate peptides were used for the peptide-based immunofluorescence assay to confirm the selective binding of the selected peptides to the used cells. FITC-labeled peptide-based immunofluorescence assay was performed, and FITC-labeled peptide (1 μM) was added to each well and then incubated for 2 h at room temperature. The wells were washed with PBS three times and directly mounted with vectashield mounting medium after DAPI staining. The cells were visualized under fluorescence microscope. In addition, to determine the binding location of the peptide, MIN6 cells were labeled with LNTPLKS-FITC and further observed under confocal microscope. For fluorescence activated cell sorting, purified islets and KPC cells were incubated in 6 well plates; 24 h later, FITC-labeled peptide was added with a final concentration of 1 μM. After 2 h of incubation, cells were washed with PBS three times and harvested for FACS to quantitatively analyze the binding affinity of the peptide to the different cell types (islets was digested to single cells before FACS analyzing).

MIN6 cells [2] = assay: Confocal microscopy, localization of the peptide in MIN6 cells; format: cell-based, mice; settings: DAPI counterstain
Procedure: as §1

islet cells [3] = assay: FITC-labeled peptide-based immunofluorescence assay on purified islets; format: cell-based, ICR mouse; settings: fluorescence microscope
Procedure: as §1

[4] = test system: islets in pancreas cryosections; assay: Binding to in situ islets, mouse pancreas cryosections; design: species or system ICR mice; settings: 2 h incubation, anti-insulin counterstain, fluorescence microscope
Procedure: (§2) In order to evaluate whether the LNTPLKS-FITC peptide could directly bind islets within the pancreas, the pancreas of ICR mice was collected and frozen sections were prepared. The cryosections were incubated with anti-insulin solution and LNTPLKS-FITC 2 h after treatment with BSA, followed by observation under fluorescence microscope. To determine whether LNTPLKS could bind to human islet, staining of paraffin-embedded human tissue sections were performed. Briefly, slices were deparaffinized and subsequently permeabilized by heating in antigen-unmasking solutions. After blocking with 2% BSA, slices were incubated with anti-insulin antibody at 4 °C overnight. Cy3-conjugated goat anti-mouse IgG (1:300 dilutions) antibody was incubated for 50 min at 24 °C. Then, the slices were incubated with DAPI and LNTPLKS-FITC or control peptide for 1 h at room temperature. Tissue slides were analyzed using a fluorescence microscope. To further confirm the specificity of peptide to islet, we transplanted islets under renal capsule of the ICR mice. Kidney slices containing islets grafts were prepared and incubated with LNTPLKS-FITC peptide. After 2 h of incubation, the slices were observed under fluorescence microscope.

human islets = assay: Binding to human islets, paraffin-embedded pancreatic tissue sections; settings: paraffin sections from a donor, co-stained with anti-insulin antibody, 1 h room temperature
Procedure: as §2

islets grafts = assay: Binding to islet grafts under the renal capsule, kidney slices; settings: islets transplanted under renal capsule of ICR mice, slices incubated 2 h
Procedure: as §2

pancreatic islet = assay: In vivo targeting of pancreatic islets after tail vein injection; design: species or system mice; settings: pancreas sliced, data not shown
Text: The final goal of developing a beta cell-specific molecular probe is to provide a non-invasive, in vivo imaging method for measuring BCM during diabetes progression and tracking islet grafts after islet transplantation, so that necessary and timely intervention can be performed. Therefore, all presumed beta cell-specific probes screened in vitro have to be validated by in vivo studies. As the first step, we tested islet specificity using pancreatic slices and islet graft-containing slices. […] However, when it comes to in vivo studies, the results were obscure. We injected FITC-conjugated LNTPLKS peptide into the mice via tail vein and the pancreas was then sliced to detect the targeting of the peptide in the pancreatic islet. The fluorescence within pancreas was rather weak (data not shown). The unsatisfied result might be attributed to the degradation of the peptide in the body. Increasing peptide stability and its circulation time will facilitate cellular uptake. In the following study, the peptide LNTPLKS will be further processed by chemical modification (such as PEGylation) to protect the peptide from degradation in vivo without changing the targeting ability of the peptide, or by conjugating it with other imaging materials (iron oxide nanoparticle, radionuclide, etc.) to be monitored by MR, SPECT, or other imaging modalities with high sensitivity.

MIN6 tumor = settings: mouse, in vivo, 5 mg/kg
Text: (§3) In total, 2 × 10^6 MIN6 cells and HCC-LM3 cells were subcutaneously inoculated in male nude mice for 4 weeks separately. After 16 days, the tumor grew to approximately 1.0 cm^3. […] The tumor, spleen, kidney and liver were harvested and their fluorescence intensity was quantified by in vivo imaging system (IVIS).

LM3 tumor = settings: mouse, in vivo, 5 mg/kg
Text: as §3

primary islet cells = test system: primary islet cells
Text: Mice insulinoma cell line MIN6 were obtained from the Academy of Sciences Cell Bank of Shanghai and routinely cultured in RPMI-1640 medium (Gibco, Shanghai, China), supplemented with 10% (v/v) fetal bovine serum (FBS) and 1% (v/v) penicillin-streptomycin. The murine pancreatic cancer cell line KPC and the hepatocellular carcinoma cell line (HCC-LM3) were kindly provided by Tingbo Liang’s Research Group (Zhejiang University, Hangzhou, China). KPC cells were maintained in RPMI-1640 medium (Gibco, Shanghai, China), supplemented with 20% FBS, 1% sodium pyruvate (100×), and 1% MEM Non-Essential Amino Acids (NEAA 100×). HCC-LM3 cells were maintained in Dulbecco’s modified Eagle’s medium (DMEM; Gibco, Shanghai, China) with 10% FBS and 1% (v/v) penicillin-streptomycin. The primary islets were isolated by collagenase digestion from ICR (Institute of Cancer Research) mice and separated by density gradient centrifugation as previously described. The islets were incubated at 37 °C in 2 mL RPMI-1640 medium at a density of 100–150 islets per well in 6-well plates and maintained at 37 °C with 5% CO2.
To investigate the effect of LNTPLKS on the viability of the islet cells, different concentrations of LNTPLKS (0, 0.5, 1, 10 μM) were separately co-incubated with islet cells in 96-well plates (triplicate wells for each concentration of peptide). Twenty-four hours later, MTT was added and incubated for 4 h. DMSO was added after centrifugation and the color development was read at an OD of 570 nm. Islet cells were incubated with different concentrations of peptides for 24 h at 37 °C. The supernatant was discarded, cells were rinsed twice with PBS, KRB buffer containing 3.3 mM glucose was added, and the cells were incubated for 30 min at 37 °C. The supernatant was discarded and cells were incubated with KRB buffer containing low glucose (3.3 mM) or high glucose (16.7 mM) for 1 h.

islet cells [5] = assay: FACS binding to islet cells; format: cell-based, ICR mouse; settings: flow cytometry, FITC-labeled peptide, 2 h incubation, islets digested to single cells
Procedure: as §1

KPC cells = assay: FACS binding to KPC cells; format: cell-based, murine; settings: flow cytometry, FITC-labeled peptide, 2 h incubation
Procedure: as §1

| Substance | FITC signal in MIN6 cells (MIN6 cells [1]) | localization of the peptide on MIN6 cells (MIN6 cells [2]) | affinity for the islet cells (fluorescent images) (islet cells [3]) | fluorescence of islets in mouse pancreas cryosections [4] | binding to human islets in pancreatic tissue sections (human islets) | fluorescence of islets grafts in kidney slices (islets grafts) | fluorescence within pancreas after injection (pancreatic islet) | fluorescence average counts, kidney (MIN6 tumor) | fluorescence average counts, liver (MIN6 tumor) | fluorescence average counts, spleen (MIN6 tumor) | fluorescence average counts, tumor (MIN6 tumor) | fluorescence average counts, kidney (LM3 tumor) | fluorescence average counts, liver (LM3 tumor) | fluorescence average counts, spleen (LM3 tumor) | fluorescence average counts, tumor (LM3 tumor) | viability of the islet cells (primary islet cells; MTT, 24 h co-incubation, peptide concentration between 500 and 1 μM, triplicate wells) | glucose-stimulated insulin secretion (GSIS) (primary islet cells; peptide 24 h at 37 °C, between 500 and 1 μM, KRB buffer high glucose 16.7 mM, 1 h, insulin ELISA, three tests) | basical insulin secretion (BIS) (primary islet cells; peptide 24 h at 37 °C, between 500 and 1 μM, KRB buffer low glucose 3.3 mM, 1 h, insulin ELISA, three tests) | mean fluorescence peak point, islet group (islet cells [5]) | mean fluorescence peak point, KPC cell group (KPC cells) |
| --- | --- | --- | --- | --- | --- | --- | --- | --- | --- | --- | --- | --- | --- | --- | --- | --- | --- | --- | --- | --- |
| {FITC}-LNTPLKS [LNTPLKS-FITC, LNTPLKS conjugated with fluorescein isothiocyanate (FITC) at the N-terminus] | significantly higher FITC signal | internalized to the cytoplasm | high affinity | fluorescent, whereas the surrounding exocrine tissues were not | identifiable within the islets and co-localized with insulin-producing cells | fluorescent | rather weak | 1.14 × 10^3 counts | 1.81 × 10^3 counts | 4.84 × 10^2 counts | 1.80 × 10^3 counts | 1.20 × 10^3 counts | 2.15 × 10^3 counts | 5.24 × 10^2 counts | 9.47 × 10^2 counts | – | – | – | – | – |
| LNTPLKS [seven-amino acid peptide targeting beta cell line MIN6, screened by phage display] | – | – | – | – | – | – | – | – | – | – | – | – | – | – | – | only slightly affected | only slightly affected | only slightly affected | shifted to the right side | no such shift |
| SPPTGIN-FITC [random peptide SPPTGIN conjugated with FITC at the N-terminus, negative control, reference compound] | – | – | – | no fluorescent signal was merged with the anti-insulin signal | – | no fluorescence was observed | – | – | – | – | – | – | – | – | – | – | – | – | – | – |
